Measured values: ChEMBL document CHEMBL4007384, “Synthesis and optimization of furano[3,2-d]pyrimidines as selective spleen tyrosine kinase (Syk) inhibitors” (Bioorg Med Chem Lett, 2016)

Columns and labels:
[1] = target: Tyrosine-protein kinase Fyn (Homo sapiens, UniProt P06241); experiment: Inhibition of Fyn (unknown origin) after 60 mins by TR-FRET assay
[2] = target: Macrophage colony-stimulating factor 1 receptor (Homo sapiens, UniProt P07333); experiment: Inhibition of CSF1R (unknown origin) after 60 mins by TR-FRET assay
[3] = target: T1, Mitogen-activated protein kinase kinase kinase kinase 2 (Homo sapiens, UniProt Q12851); experiment: Inhibition of MAP4K2 (unknown origin) after 60 mins by TR-FRET assay
T1 sequence (Q12851 whole entry): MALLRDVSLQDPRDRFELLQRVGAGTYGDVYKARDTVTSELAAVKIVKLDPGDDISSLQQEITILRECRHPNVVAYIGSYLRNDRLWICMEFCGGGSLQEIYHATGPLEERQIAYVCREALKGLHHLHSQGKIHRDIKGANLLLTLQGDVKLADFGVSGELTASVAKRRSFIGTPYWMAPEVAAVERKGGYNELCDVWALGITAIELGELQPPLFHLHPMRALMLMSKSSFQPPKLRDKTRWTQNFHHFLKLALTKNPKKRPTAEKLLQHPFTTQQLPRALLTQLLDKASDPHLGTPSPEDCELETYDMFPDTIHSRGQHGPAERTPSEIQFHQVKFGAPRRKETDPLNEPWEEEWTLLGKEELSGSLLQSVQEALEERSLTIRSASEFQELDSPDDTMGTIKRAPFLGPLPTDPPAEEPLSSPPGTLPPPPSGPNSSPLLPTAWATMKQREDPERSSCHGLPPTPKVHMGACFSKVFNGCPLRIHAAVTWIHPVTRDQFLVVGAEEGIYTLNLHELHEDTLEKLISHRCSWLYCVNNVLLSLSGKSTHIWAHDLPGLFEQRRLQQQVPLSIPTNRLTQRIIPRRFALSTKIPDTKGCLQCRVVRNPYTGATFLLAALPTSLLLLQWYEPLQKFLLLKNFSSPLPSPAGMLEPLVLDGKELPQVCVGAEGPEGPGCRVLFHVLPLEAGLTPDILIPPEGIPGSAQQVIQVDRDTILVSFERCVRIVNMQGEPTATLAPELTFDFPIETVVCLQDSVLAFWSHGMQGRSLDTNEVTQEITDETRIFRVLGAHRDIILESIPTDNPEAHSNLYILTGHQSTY

[4] = target: Wee1-like protein kinase (Homo sapiens, UniProt P30291); experiment: Inhibition of Wee1 (unknown origin) after 60 mins by TR-FRET assay
[5] = target: High affinity nerve growth factor receptor (Homo sapiens, UniProt P04629); experiment: Inhibition of TRKA (unknown origin) after 60 mins by TR-FRET assay
[6] = target: Casein kinase I isoform alpha (Homo sapiens, UniProt P48729); experiment: Inhibition of CK1alpha1 (unknown origin) after 60 mins by TR-FRET assay
[7] = target: T2, Serine/threonine-protein kinase TAO2 (Homo sapiens, UniProt Q9UL54); experiment: Inhibition of TAOK2 (unknown origin) after 60 mins by TR-FRET assay
T2 sequence (Q9UL54 whole entry): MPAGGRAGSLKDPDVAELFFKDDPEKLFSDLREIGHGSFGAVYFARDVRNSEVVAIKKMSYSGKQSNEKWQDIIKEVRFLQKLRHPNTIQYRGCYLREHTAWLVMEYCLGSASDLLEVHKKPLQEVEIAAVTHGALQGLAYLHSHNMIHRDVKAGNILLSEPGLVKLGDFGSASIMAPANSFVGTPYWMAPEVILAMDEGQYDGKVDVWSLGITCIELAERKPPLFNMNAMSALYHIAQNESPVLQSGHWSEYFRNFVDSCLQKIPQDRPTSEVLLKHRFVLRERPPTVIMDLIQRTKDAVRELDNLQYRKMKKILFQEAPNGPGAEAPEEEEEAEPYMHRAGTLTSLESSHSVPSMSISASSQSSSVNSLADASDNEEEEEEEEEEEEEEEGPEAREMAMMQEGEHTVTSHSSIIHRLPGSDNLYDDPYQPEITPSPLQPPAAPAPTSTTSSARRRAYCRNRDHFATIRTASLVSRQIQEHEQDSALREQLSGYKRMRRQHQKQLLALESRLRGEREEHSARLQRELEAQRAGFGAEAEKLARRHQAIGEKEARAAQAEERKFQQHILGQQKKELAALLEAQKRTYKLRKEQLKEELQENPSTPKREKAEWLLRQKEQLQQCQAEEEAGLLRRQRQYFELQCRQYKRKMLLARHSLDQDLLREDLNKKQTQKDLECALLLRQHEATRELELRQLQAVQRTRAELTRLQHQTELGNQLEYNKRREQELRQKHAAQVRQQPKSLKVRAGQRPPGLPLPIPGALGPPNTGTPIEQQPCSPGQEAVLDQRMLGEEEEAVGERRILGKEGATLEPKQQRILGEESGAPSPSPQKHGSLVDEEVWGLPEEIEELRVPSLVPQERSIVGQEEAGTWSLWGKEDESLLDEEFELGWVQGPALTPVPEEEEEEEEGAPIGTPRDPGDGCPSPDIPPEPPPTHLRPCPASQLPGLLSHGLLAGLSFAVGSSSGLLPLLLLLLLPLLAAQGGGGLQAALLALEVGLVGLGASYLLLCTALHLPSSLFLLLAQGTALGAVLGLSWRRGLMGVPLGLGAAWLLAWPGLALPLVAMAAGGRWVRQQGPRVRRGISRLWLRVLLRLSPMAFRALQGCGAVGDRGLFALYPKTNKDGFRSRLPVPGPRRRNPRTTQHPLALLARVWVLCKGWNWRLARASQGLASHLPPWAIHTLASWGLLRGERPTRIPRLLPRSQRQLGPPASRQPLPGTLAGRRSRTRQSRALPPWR

[8] = target: Dual specificity tyrosine-phosphorylation-regulated kinase 1A (Homo sapiens, UniProt Q13627); experiment: Inhibition of DYRK1A (unknown origin) after 60 mins by TR-FRET assay
[9] = target: Dual specificity tyrosine-phosphorylation-regulated kinase 1B (Homo sapiens, UniProt Q9Y463); experiment: Inhibition of DYRK1B (unknown origin) after 60 mins by TR-FRET assay
[10] = target: Rho-associated protein kinase 1 (Homo sapiens, UniProt Q13464); experiment: Inhibition of ROCK1(unknown origin) after 60 mins by TR-FRET assay
[11] = target: Protein kinase C theta type (Homo sapiens, UniProt Q04759); experiment: Inhibition of PKCtheta (unknown origin) after 60 mins by TR-FRET assay
[12] = target: Activated CDC42 kinase 1 (Homo sapiens, UniProt Q07912); experiment: Inhibition of TNK2 (unknown origin) after 60 mins by TR-FRET assay
[13] = target: Cyclin-dependent kinase 7 (Homo sapiens, UniProt P50613); experiment: Inhibition of CDK7 (unknown origin) after 60 mins by TR-FRET assay
[14] = target: Vascular endothelial growth factor receptor 2 (Homo sapiens, UniProt P35968); experiment: Inhibition of KDR (unknown origin) after 60 mins by TR-FRET assay
[15] = target: Tyrosine-protein kinase SYK (Homo sapiens, UniProt P43405)
Description: Inhibition of Syk (unknown origin) after 60 mins by TR-FRET assay

Chain of Wee1-like protein kinase (P30291 whole entry): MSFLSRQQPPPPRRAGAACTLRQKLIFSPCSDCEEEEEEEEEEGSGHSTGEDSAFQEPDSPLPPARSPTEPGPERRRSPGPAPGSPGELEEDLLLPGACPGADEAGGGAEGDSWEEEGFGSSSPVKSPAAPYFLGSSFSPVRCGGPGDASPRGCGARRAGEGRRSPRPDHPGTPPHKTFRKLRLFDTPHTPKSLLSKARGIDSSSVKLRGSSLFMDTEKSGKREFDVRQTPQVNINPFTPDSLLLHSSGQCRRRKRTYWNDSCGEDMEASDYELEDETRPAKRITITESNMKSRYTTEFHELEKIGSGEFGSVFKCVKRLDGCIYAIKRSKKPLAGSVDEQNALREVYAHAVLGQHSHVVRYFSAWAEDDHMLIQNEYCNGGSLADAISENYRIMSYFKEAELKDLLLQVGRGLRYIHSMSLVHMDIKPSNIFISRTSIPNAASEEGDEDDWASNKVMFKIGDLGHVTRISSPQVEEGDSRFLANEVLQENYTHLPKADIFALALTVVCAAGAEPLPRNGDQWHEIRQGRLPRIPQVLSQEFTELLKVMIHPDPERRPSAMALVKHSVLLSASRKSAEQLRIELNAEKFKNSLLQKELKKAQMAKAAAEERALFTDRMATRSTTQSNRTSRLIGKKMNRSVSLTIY
Chain of Cyclin-dependent kinase 7 (P50613 whole entry): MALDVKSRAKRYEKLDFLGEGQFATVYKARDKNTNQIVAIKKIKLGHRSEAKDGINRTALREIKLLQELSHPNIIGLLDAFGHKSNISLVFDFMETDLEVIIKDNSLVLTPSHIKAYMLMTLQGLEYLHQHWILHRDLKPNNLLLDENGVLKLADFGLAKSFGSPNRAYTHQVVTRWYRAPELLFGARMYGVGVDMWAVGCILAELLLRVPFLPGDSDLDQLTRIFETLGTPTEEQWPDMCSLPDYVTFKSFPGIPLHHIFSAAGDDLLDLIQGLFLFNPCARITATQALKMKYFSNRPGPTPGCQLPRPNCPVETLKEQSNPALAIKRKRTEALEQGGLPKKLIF
Chain of Rho-associated protein kinase 1 (Q13464 whole entry): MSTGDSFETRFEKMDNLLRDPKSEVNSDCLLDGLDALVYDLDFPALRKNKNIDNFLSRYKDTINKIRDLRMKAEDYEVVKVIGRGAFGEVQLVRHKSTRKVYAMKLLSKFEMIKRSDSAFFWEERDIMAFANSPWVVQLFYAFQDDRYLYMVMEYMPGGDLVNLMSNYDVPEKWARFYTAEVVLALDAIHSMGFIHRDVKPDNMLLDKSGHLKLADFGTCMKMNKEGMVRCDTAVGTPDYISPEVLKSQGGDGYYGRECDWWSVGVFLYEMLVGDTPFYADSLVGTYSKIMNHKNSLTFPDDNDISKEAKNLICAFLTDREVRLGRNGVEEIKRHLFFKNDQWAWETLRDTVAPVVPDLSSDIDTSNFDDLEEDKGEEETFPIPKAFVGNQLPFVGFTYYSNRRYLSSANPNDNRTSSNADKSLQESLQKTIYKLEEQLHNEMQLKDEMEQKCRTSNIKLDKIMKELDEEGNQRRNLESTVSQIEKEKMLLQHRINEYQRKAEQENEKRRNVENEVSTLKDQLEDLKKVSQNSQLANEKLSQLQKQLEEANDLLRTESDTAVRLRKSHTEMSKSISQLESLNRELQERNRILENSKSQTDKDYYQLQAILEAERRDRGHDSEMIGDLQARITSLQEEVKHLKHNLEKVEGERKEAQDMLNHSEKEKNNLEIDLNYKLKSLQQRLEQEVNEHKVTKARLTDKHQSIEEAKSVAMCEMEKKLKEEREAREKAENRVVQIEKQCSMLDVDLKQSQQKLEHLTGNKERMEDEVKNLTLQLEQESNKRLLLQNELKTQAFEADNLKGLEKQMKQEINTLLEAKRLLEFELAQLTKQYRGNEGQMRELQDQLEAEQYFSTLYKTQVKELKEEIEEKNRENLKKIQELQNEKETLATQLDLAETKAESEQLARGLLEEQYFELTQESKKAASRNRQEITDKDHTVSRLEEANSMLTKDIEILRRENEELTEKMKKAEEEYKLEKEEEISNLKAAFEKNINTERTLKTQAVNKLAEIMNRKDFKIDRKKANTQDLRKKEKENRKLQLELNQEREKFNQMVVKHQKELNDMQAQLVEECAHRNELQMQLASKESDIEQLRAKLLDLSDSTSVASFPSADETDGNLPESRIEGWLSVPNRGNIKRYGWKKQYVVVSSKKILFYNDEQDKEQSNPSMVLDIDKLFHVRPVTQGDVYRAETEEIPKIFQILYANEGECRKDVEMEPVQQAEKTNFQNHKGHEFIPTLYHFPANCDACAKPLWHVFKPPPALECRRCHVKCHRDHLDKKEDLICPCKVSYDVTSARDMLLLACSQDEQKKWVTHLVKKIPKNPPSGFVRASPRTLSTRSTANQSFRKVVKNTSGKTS
Chain of Vascular endothelial growth factor receptor 2 (P35968 whole entry): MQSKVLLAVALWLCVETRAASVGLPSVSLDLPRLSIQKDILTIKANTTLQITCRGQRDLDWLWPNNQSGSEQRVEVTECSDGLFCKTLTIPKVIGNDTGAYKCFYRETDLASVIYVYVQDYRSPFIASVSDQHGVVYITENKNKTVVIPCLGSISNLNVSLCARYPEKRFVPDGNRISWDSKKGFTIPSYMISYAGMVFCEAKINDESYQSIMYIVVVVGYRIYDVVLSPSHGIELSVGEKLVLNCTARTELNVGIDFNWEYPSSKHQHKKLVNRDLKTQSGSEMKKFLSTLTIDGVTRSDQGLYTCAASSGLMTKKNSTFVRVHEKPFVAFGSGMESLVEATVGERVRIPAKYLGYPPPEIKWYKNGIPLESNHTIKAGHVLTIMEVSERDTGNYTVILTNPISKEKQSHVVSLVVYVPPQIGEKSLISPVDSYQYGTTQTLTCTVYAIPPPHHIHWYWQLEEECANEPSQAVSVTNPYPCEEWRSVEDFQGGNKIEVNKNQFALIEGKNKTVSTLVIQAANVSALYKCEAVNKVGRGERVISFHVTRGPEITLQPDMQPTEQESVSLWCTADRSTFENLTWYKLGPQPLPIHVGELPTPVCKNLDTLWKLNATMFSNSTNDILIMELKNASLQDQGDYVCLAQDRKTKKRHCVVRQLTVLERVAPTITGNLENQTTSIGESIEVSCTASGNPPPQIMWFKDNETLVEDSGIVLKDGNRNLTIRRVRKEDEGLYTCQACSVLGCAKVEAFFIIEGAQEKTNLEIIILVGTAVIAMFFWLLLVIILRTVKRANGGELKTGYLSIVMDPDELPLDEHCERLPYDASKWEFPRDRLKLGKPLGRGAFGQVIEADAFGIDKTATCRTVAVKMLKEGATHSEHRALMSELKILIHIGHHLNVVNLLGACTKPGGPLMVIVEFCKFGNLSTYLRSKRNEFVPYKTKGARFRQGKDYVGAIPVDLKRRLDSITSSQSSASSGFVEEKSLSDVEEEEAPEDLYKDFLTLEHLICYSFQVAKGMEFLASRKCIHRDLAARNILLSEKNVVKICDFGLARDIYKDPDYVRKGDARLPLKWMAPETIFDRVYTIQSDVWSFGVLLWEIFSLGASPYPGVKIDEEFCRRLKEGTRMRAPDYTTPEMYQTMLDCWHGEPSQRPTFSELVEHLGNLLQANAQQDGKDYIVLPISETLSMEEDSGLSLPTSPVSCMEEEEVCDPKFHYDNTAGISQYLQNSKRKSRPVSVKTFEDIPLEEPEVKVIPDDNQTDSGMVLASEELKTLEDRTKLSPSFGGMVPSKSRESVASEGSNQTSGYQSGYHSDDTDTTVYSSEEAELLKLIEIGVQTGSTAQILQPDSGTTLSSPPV
Chain of Dual specificity tyrosine-phosphorylation-regulated kinase 1B (Q9Y463 whole entry): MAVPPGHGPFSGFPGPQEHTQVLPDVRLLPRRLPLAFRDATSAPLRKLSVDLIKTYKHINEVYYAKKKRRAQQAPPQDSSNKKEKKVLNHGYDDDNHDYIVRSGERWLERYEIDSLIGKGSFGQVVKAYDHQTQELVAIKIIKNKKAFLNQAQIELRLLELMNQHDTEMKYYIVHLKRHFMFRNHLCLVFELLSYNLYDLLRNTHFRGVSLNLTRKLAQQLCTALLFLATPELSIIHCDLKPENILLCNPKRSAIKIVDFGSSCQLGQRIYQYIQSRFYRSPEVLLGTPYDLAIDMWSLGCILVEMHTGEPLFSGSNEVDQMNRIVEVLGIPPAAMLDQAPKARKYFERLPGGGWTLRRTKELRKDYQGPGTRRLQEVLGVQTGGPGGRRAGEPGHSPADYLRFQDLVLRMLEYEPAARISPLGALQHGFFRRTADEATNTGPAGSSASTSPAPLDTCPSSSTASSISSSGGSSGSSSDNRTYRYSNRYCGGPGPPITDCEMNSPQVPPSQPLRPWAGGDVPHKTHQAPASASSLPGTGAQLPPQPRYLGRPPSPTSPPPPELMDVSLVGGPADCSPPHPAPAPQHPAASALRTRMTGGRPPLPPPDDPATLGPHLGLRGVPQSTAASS
Chain of Protein kinase C theta type (Q04759 whole entry): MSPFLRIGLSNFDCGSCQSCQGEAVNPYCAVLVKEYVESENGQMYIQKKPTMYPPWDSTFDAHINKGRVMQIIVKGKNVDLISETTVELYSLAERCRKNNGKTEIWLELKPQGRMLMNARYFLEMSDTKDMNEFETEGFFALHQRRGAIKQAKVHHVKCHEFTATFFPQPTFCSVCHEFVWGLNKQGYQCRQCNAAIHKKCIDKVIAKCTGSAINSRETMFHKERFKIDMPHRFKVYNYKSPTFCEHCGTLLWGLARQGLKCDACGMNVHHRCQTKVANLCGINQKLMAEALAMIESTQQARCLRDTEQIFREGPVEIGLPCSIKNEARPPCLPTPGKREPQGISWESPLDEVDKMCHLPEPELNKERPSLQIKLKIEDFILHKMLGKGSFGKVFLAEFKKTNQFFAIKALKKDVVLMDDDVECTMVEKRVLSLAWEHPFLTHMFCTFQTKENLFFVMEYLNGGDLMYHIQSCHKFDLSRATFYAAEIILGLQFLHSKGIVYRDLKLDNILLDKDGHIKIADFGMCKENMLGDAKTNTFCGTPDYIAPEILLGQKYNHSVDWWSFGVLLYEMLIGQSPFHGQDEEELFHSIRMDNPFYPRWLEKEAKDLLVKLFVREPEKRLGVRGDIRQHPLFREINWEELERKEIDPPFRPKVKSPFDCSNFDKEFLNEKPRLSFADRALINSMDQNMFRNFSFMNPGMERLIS

| IC50 [1] [µM] | IC50 [2] [µM] | IC50 [3] [µM] | IC50 [4] [µM] | IC50 [5] [µM] | IC50 [6] [µM] | IC50 [7] [µM] | IC50 [8] [µM] | IC50 [9] [µM] | IC50 [10] [µM] | IC50 [11] [µM] | IC50 [12] [µM] | IC50 [13] [µM] | IC50 [14] [µM] | IC50 [15] [µM] | Compound |
| --- | --- | --- | --- | --- | --- | --- | --- | --- | --- | --- | --- | --- | --- | --- | --- |
| 5.96 | > 10 | 6.24 | > 10 | > 10 | 7.54 | > 10 | > 10 | > 10 | > 10 | > 10 | 1.32 | > 10 | – | – | Cc1n[nH]c2cc(Nc3nc(NC4CC4)c4occc4n3)ccc12 |
| 0.201 | > 10 | 2.94 | 9.88 | 5.4 | > 10 | 8.52 | > 10 | > 10 | 5.78 | > 10 | 1.33 | > 10 | 3.35 | 0.009 | CC1(C)OCC(=O)Nc2cc(Nc3nc(NCC(F)(F)F)c4occc4n3)ccc21 |
| – | > 10 | – | > 10 | > 10 | – | > 10 | 4.86 | – | 8.61 | – | 3.46 | > 10 | > 10 | 0.097 | FC(F)(F)CNc1nc(Nc2ccc3cn[nH]c3c2)nc2ccoc12 |
| 1.51 | > 10 | 1.57 | > 10 | > 10 | > 10 | > 10 | > 10 | > 10 | > 10 | > 10 | 4.02 | > 10 | > 10 | 0.069 | FC(F)(F)CNc1nc(Nc2ccc(N3CCOCC3)c(Cl)c2)nc2ccoc12 |
